Experimental findings from patent publication US6114310A, “Efflux pump inhibitors” (priority 1998, dated 2000) are described below.

The assay has as its system Pseudomonas aeruginosa PAM1001. The assay can be described thus: microbe, parasite or virus in culture. Format: cell-based. The method in brief: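 Checkerboard broth microdilution (NCCLS) with the efflux pump inhibitor and levofloxacin, each diluted along one axis of the plate, in Mueller Hinton Broth. Inoculum 5×10^5 CFU/ml from early-log culture; incubation 20 h at 35° C. Growth read at 650 nm and visually.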

Where [1] appears, read: Table 1, EPI Conc. μg/ml (number not given; column between 10 and 40 μg/ml).
Setting [2] is: Table 2, EPI Conc. μg/ml (number not given; column between 10 and 40 μg/ml).
Where [3] appears, read: Table 3, EPI Conc. μg/ml (number not given; column between 10 and 40 μg/ml).
The mark [4] stands for this setting: Table 4, EPI Conc. μg/ml (number not given; column between 10 and 40 μg/ml).

As to “D-Ornithyl-β-N-(Cyclopropylmethyl)alanine Quinoline-2-amide Trifluoroacetate [Example 28]”, the “Levofloxacin MIC Against P. aeruginosa PAM1001 in Presence of Efflux Pump Inhibitor (EPI), Minimum Inhibitory Concentration” value (Table 1, EPI Conc. 0 μg/ml) is 4 µg/mL; the “Levofloxacin MIC Against P. aeruginosa PAM1001 in Presence of Efflux Pump Inhibitor (EPI), Minimum Inhibitory Concentration” value (Table 1, EPI Conc. 0.625 μg/ml) came to 4 µg/mL; the “Levofloxacin MIC Against P. aeruginosa PAM1001 in Presence of Efflux Pump Inhibitor (EPI), Minimum Inhibitory Concentration” value (Table 1, EPI Conc. 5 μg/ml) turned out to be 2 µg/mL; the “Levofloxacin MIC Against P. aeruginosa PAM1001 in Presence of Efflux Pump Inhibitor (EPI), Minimum Inhibitory Concentration” value (Table 1, EPI Conc. 10 μg/ml) is 1 µg/mL; the “Levofloxacin MIC Against P. aeruginosa PAM1001 in Presence of Efflux Pump Inhibitor (EPI), Minimum Inhibitory Concentration” value (Table 1, EPI Conc. 40 μg/ml) amounted to 0.125 µg/mL; the “Levofloxacin MIC Against P. aeruginosa PAM1001 in Presence of Efflux Pump Inhibitor (EPI), Minimum Inhibitory Concentration” value (Table 1, EPI Conc. […]) was 4 µg/mL. Also, the “Levofloxacin MIC Against P. aeruginosa PAM1001 in Presence of Efflux Pump Inhibitor (EPI), Minimum Inhibitory Concentration” value is 0.06 µg/mL under setting [1]; 4 µg/mL (Table 2, EPI Conc. 0 μg/ml); 4 µg/mL (Table 2, EPI Conc. 0.625 μg/ml); 1 µg/mL (Table 2, EPI Conc. 5 μg/ml); 0.50 µg/mL (Table 2, EPI Conc. 10 μg/ml); 0.125 µg/mL (Table 2, EPI Conc. 40 μg/ml). For the same compound, the “Levofloxacin MIC Against P. aeruginosa PAM1001 in Presence of Efflux Pump Inhibitor (EPI), Minimum Inhibitory Concentration” value (Table 2, EPI Conc. […]) was 4 µg/mL; the “Levofloxacin MIC Against P. aeruginosa PAM1001 in Presence of Efflux Pump Inhibitor (EPI), Minimum Inhibitory Concentration” value under setting [2] was 0.25 µg/mL; the “Levofloxacin MIC Against P. aeruginosa PAM1001 in Presence of Efflux Pump Inhibitor (EPI), Minimum Inhibitory Concentration” value (Table 3, EPI Conc. 0 μg/ml) was 4 µg/mL; the “Levofloxacin MIC Against P. aeruginosa PAM1001 in Presence of Efflux Pump Inhibitor (EPI), Minimum Inhibitory Concentration” value (Table 3, EPI Conc. 0.625 μg/ml) amounted to 4 µg/mL; the “Levofloxacin MIC Against P. aeruginosa PAM1001 in Presence of Efflux Pump Inhibitor (EPI), Minimum Inhibitory Concentration” value (Table 3, EPI Conc. 5 μg/ml) was found to be 0.015 µg/mL; the “Levofloxacin MIC Against P. aeruginosa PAM1001 in Presence of Efflux Pump Inhibitor (EPI), Minimum Inhibitory Concentration” value (Table 3, EPI Conc. 10 μg/ml) came out at 0.008 µg/mL. Further, the “Levofloxacin MIC Against P. aeruginosa PAM1001 in Presence of Efflux Pump Inhibitor (EPI), Minimum Inhibitory Concentration” value was 0.015 µg/mL (Table 3, EPI Conc. 40 μg/ml); 0.015 µg/mL under setting [3]; 4 µg/mL (Table 4, EPI Conc. 0 μg/ml); 4 µg/mL (Table 4, EPI Conc. 0.625 μg/ml); 2 µg/mL (Table 4, EPI Conc. 5 μg/ml); 0.25 µg/mL (Table 4, EPI Conc. 10 μg/ml). Also, the “Levofloxacin MIC Against P. aeruginosa PAM1001 in Presence of Efflux Pump Inhibitor (EPI), Minimum Inhibitory Concentration” value is 0.125 µg/mL (Table 4, EPI Conc. 40 μg/ml) and 0.125 µg/mL under setting [4].
As for “D-Ornithyl-D-phenylalanine quinoline-3-amide [Compound 7 (Table 2)]”, the “Levofloxacin MIC Against P. aeruginosa PAM1001 in Presence of Efflux Pump Inhibitor (EPI), Minimum Inhibitory Concentration” value (Table 1, EPI Conc. 0 μg/ml) amounted to 4 µg/mL; the “Levofloxacin MIC Against P. aeruginosa PAM1001 in Presence of Efflux Pump Inhibitor (EPI), Minimum Inhibitory Concentration” value (Table 1, EPI Conc. 0.625 μg/ml) was 4 µg/mL; the “Levofloxacin MIC Against P. aeruginosa PAM1001 in Presence of Efflux Pump Inhibitor (EPI), Minimum Inhibitory Concentration” value (Table 1, EPI Conc. 5 μg/ml) worked out at 4 µg/mL; the “Levofloxacin MIC Against P. aeruginosa PAM1001 in Presence of Efflux Pump Inhibitor (EPI), Minimum Inhibitory Concentration” value (Table 1, EPI Conc. 10 μg/ml) turned out to be 2 µg/mL; the “Levofloxacin MIC Against P. aeruginosa PAM1001 in Presence of Efflux Pump Inhibitor (EPI), Minimum Inhibitory Concentration” value (Table 1, EPI Conc. 40 μg/ml) is 0.50 µg/mL; the “Levofloxacin MIC Against P. aeruginosa PAM1001 in Presence of Efflux Pump Inhibitor (EPI), Minimum Inhibitory Concentration” value (Table 1, EPI Conc. […]) was determined as 4 µg/mL. The “Levofloxacin MIC Against P. aeruginosa PAM1001 in Presence of Efflux Pump Inhibitor (EPI), Minimum Inhibitory Concentration” value runs as follows: under setting [1], 1 µg/mL; (Table 2, EPI Conc. 0 μg/ml) 4 µg/mL; (Table 2, EPI Conc. 0.625 μg/ml) 4 µg/mL; (Table 2, EPI Conc. 5 μg/ml) 0.25 µg/mL; (Table 2, EPI Conc. 10 μg/ml) 0.06 µg/mL; (Table 2, EPI Conc. 40 μg/ml) 0.06 µg/mL. Further, the “Levofloxacin MIC Against P. aeruginosa PAM1001 in Presence of Efflux Pump Inhibitor (EPI), Minimum Inhibitory Concentration” value runs as follows: under setting [2], 0.06 µg/mL; (Table 3, EPI Conc. 0 μg/ml) 4 µg/mL; (Table 3, EPI Conc. 0.625 μg/ml) 4 µg/mL; (Table 3, EPI Conc. 5 μg/ml) 0.015 µg/mL; (Table 3, EPI Conc. 10 μg/ml) 0.015 µg/mL; under setting [3], 0.03 µg/mL. The “Levofloxacin MIC Against P. aeruginosa PAM1001 in Presence of Efflux Pump Inhibitor (EPI), Minimum Inhibitory Concentration” value by setting is: (Table 4, EPI Conc. 0 μg/ml) 4 µg/mL; (Table 4, EPI Conc. 0.625 μg/ml) 4 µg/mL; (Table 4, EPI Conc. 5 μg/ml) 0.06 µg/mL; (Table 4, EPI Conc. 10 μg/ml) 0.03 µg/mL; (Table 4, EPI Conc. 40 μg/ml) 0.03 µg/mL; under setting [4], 0.03 µg/mL.
“D-Lysyl-β-N-(Ethylthioethyl)alanine 2-Naphthylamide Trifluoroacetate [Example 26]”: the “Levofloxacin MIC Against P. aeruginosa PAM1001 in Presence of Efflux Pump Inhibitor (EPI), Minimum Inhibitory Concentration” value was 4 µg/mL (Table 1, EPI Conc. 0 μg/ml); 4 µg/mL (Table 1, EPI Conc. 0.625 μg/ml); 1 µg/mL (Table 1, EPI Conc. 5 μg/ml); 0.125 µg/mL (Table 1, EPI Conc. 10 μg/ml); 0.06 µg/mL (Table 1, EPI Conc. 40 μg/ml); 0.125 µg/mL under setting [1]. Besides, the “Levofloxacin MIC Against P. aeruginosa PAM1001 in Presence of Efflux Pump Inhibitor (EPI), Minimum Inhibitory Concentration” value (Table 2, EPI Conc. 0 μg/ml) is 4 µg/mL; the “Levofloxacin MIC Against P. aeruginosa PAM1001 in Presence of Efflux Pump Inhibitor (EPI), Minimum Inhibitory Concentration” value (Table 2, EPI Conc. 0.625 μg/ml) came to 4 µg/mL; the “Levofloxacin MIC Against P. aeruginosa PAM1001 in Presence of Efflux Pump Inhibitor (EPI), Minimum Inhibitory Concentration” value (Table 2, EPI Conc. 5 μg/ml) turned out to be 2 µg/mL; the “Levofloxacin MIC Against P. aeruginosa PAM1001 in Presence of Efflux Pump Inhibitor (EPI), Minimum Inhibitory Concentration” value (Table 2, EPI Conc. 10 μg/ml) came to 0.125 µg/mL; the “Levofloxacin MIC Against P. aeruginosa PAM1001 in Presence of Efflux Pump Inhibitor (EPI), Minimum Inhibitory Concentration” value (Table 2, EPI Conc. 40 μg/ml) was 0.06 µg/mL; the “Levofloxacin MIC Against P. aeruginosa PAM1001 in Presence of Efflux Pump Inhibitor (EPI), Minimum Inhibitory Concentration” value (Table 2, EPI Conc. […]) is 4 µg/mL. The “Levofloxacin MIC Against P. aeruginosa PAM1001 in Presence of Efflux Pump Inhibitor (EPI), Minimum Inhibitory Concentration” value under setting [2] was 0.125 µg/mL; the “Levofloxacin MIC Against P. aeruginosa PAM1001 in Presence of Efflux Pump Inhibitor (EPI), Minimum Inhibitory Concentration” value (Table 3, EPI Conc. 0 μg/ml) stood at 4 µg/mL; the “Levofloxacin MIC Against P. aeruginosa PAM1001 in Presence of Efflux Pump Inhibitor (EPI), Minimum Inhibitory Concentration” value (Table 3, EPI Conc. 0.625 μg/ml) turned out to be 4 µg/mL; the “Levofloxacin MIC Against P. aeruginosa PAM1001 in Presence of Efflux Pump Inhibitor (EPI), Minimum Inhibitory Concentration” value (Table 3, EPI Conc. 5 μg/ml) was found to be 0.06 µg/mL; the “Levofloxacin MIC Against P. aeruginosa PAM1001 in Presence of Efflux Pump Inhibitor (EPI), Minimum Inhibitory Concentration” value (Table 3, EPI Conc. 10 μg/ml) was 0.015 µg/mL; the “Levofloxacin MIC Against P. aeruginosa PAM1001 in Presence of Efflux Pump Inhibitor (EPI), Minimum Inhibitory Concentration” value under setting [3] stood at 0.03 µg/mL. Also, the “Levofloxacin MIC Against P. aeruginosa PAM1001 in Presence of Efflux Pump Inhibitor (EPI), Minimum Inhibitory Concentration” value by setting is: (Table 4, EPI Conc. 0 μg/ml) 4 µg/mL; (Table 4, EPI Conc. 0.625 μg/ml) 4 µg/mL; (Table 4, EPI Conc. 5 μg/ml) 1 µg/mL; (Table 4, EPI Conc. 10 μg/ml) 0.25 µg/mL; (Table 4, EPI Conc. 40 μg/ml) 0.03 µg/mL; (Table 4, EPI Conc. […]) 4 µg/mL. Moreover, the “Levofloxacin MIC Against P. aeruginosa PAM1001 in Presence of Efflux Pump Inhibitor (EPI), Minimum Inhibitory Concentration” value under setting [4] was determined as 0.125 µg/mL.
For `C[C@H]1COc2c(N3CCN(C)CC3)c(F)cc3c(=O)c(C(=O)O)cn1c23` [levofloxacin, reference compound], the MIC (Pseudomonas aeruginosa, PAM1001, read-out: MIC of levofloxacin against P. aeruginosa PAM1001) amounted to 4 µg/mL.
